Laboratory results: publication PMC10046369, “Low-Affinity/High-Selectivity Dopamine Transport Inhibition Sufficient to Rescue Cognitive Functions in the Aging Rat” (Biomolecules, 2023)

Columns and labels:
Experiment in all cases: biochemical
Parameters in all cases: KINOMEscan competition binding panel, per cent of control
Settings in all cases: read-out: %Ctrl @ 2800nM
[1] = target: T1, ABL1(E255K)-phosphorylated (Homo sapiens, UniProt P00519, E255K)
T1 construct: phosphorylated
Procedure, shortened: (§1)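 Competition binding panel (KINOMEscan) across 450 human kinases and disease-relevant mutants, run to the contractor's standard protocol. Values are % control: (test signal − positive control signal)/(negative control signal − positive control signal) × 100, with lower values indicating stronger binding.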

CDC2L5 = target: T2, CDC2L5 (Homo sapiens, UniProt Q14004)
T2 construct: gene CDK13
Procedure, shortened: as §1

CDK2 = CDK2 (Homo sapiens, UniProt P24941)
Procedure, shortened: as §1

CDKL2 = CDKL2 (Homo sapiens, UniProt Q92772)
Chain of CDKL2 (Q92772 whole entry): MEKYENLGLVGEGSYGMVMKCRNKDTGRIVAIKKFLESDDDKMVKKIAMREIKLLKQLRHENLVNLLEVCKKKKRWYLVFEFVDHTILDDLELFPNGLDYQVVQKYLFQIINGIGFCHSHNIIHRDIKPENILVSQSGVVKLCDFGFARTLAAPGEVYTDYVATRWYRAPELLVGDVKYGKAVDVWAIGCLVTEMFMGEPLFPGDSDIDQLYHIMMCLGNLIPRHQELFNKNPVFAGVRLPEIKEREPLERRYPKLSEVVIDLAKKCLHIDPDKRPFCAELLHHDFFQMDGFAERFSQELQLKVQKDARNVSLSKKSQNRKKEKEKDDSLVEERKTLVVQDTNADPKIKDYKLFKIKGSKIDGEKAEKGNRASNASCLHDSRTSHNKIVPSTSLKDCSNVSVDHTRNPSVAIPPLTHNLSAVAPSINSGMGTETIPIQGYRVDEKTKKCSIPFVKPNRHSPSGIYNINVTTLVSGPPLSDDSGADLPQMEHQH
Procedure, shortened: as §1

CSF1R-autoinhibited = CSF1R-autoinhibited (Homo sapiens, UniProt P07333)
Chain of CSF1R-autoinhibited (P07333 whole entry): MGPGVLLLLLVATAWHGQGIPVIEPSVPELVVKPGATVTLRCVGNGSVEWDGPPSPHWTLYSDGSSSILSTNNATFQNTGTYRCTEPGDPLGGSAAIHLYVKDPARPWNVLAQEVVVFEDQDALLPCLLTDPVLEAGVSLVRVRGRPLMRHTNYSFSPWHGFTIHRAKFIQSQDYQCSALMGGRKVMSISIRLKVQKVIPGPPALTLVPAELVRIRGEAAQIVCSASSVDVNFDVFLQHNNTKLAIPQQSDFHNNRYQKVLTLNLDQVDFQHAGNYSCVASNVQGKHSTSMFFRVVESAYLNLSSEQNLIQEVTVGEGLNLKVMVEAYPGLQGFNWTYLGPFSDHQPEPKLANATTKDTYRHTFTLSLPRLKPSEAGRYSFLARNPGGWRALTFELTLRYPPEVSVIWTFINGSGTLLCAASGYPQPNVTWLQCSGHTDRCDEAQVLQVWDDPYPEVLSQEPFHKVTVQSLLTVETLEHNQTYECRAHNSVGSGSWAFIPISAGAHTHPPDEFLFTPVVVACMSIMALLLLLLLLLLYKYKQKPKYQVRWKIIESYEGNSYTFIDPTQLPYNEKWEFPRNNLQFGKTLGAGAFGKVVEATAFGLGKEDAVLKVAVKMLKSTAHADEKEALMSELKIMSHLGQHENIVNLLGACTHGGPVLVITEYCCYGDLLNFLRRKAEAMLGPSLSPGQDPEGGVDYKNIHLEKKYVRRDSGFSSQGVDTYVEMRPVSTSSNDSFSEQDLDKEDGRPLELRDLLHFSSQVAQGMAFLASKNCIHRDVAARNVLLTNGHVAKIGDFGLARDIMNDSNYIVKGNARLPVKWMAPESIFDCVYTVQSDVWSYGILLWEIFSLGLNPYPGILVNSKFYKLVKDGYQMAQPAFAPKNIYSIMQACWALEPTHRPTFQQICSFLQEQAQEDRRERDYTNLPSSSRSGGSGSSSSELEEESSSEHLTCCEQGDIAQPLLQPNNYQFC
Procedure, shortened: as §1

[2] = target: EGFR(L747-S752del, P753S) (Homo sapiens, UniProt P00533, DEL747-752/P753S)
Chain of EGFR(L747-S752del, P753S) (P00533 with tags, fused parts or gaps DEL747-752/P753S): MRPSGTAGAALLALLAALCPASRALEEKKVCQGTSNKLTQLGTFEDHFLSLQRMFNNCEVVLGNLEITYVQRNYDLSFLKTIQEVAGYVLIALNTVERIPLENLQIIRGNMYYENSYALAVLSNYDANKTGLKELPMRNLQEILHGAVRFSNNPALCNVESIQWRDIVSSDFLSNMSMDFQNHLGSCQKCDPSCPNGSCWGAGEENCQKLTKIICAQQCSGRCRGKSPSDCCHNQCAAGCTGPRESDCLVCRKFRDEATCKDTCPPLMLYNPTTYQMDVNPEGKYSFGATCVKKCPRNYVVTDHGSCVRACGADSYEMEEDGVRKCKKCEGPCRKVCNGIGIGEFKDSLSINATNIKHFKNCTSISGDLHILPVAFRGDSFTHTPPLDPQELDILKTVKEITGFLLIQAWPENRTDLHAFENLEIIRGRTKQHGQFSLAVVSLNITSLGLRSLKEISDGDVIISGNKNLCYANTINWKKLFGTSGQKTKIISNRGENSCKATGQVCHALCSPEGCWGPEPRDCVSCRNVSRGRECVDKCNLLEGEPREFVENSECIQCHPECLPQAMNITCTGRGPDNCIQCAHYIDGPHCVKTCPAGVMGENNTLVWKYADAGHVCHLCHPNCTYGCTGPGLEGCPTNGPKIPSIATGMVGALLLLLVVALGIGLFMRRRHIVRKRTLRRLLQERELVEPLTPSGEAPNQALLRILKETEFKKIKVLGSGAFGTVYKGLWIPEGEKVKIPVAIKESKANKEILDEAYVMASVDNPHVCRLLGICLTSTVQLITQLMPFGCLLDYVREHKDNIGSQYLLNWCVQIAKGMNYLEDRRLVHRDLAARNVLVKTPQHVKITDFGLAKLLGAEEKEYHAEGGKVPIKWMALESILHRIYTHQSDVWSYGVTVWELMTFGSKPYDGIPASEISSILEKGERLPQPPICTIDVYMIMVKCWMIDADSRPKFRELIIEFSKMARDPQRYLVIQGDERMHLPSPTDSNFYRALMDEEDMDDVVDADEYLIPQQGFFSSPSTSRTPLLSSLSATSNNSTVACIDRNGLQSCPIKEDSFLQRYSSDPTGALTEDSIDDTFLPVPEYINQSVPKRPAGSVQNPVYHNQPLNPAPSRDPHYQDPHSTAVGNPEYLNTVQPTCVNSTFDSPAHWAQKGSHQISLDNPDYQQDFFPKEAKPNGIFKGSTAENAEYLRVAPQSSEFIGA
Procedure, shortened: as §1

EGFR(L747-T751del,Sins) = EGFR(L747-T751del,Sins) (Homo sapiens, UniProt P00533, DEL747-750/T751S)
Procedure, shortened: as §1

EGFR(T790M) = EGFR(T790M) (Homo sapiens, UniProt P00533, T790M)
Procedure, shortened: as §1

EPHA7 = EPHA7 (Homo sapiens, UniProt Q15375)
Procedure, shortened: as §1

ERN1 = ERN1 (Homo sapiens, UniProt O75460)
Procedure, shortened: as §1

FLT3(D835Y) = FLT3(D835Y) (Homo sapiens, UniProt P36888, D835Y)
Procedure, shortened: as §1

KIT = KIT (Homo sapiens, UniProt P10721)
Chain of KIT (P10721 whole entry): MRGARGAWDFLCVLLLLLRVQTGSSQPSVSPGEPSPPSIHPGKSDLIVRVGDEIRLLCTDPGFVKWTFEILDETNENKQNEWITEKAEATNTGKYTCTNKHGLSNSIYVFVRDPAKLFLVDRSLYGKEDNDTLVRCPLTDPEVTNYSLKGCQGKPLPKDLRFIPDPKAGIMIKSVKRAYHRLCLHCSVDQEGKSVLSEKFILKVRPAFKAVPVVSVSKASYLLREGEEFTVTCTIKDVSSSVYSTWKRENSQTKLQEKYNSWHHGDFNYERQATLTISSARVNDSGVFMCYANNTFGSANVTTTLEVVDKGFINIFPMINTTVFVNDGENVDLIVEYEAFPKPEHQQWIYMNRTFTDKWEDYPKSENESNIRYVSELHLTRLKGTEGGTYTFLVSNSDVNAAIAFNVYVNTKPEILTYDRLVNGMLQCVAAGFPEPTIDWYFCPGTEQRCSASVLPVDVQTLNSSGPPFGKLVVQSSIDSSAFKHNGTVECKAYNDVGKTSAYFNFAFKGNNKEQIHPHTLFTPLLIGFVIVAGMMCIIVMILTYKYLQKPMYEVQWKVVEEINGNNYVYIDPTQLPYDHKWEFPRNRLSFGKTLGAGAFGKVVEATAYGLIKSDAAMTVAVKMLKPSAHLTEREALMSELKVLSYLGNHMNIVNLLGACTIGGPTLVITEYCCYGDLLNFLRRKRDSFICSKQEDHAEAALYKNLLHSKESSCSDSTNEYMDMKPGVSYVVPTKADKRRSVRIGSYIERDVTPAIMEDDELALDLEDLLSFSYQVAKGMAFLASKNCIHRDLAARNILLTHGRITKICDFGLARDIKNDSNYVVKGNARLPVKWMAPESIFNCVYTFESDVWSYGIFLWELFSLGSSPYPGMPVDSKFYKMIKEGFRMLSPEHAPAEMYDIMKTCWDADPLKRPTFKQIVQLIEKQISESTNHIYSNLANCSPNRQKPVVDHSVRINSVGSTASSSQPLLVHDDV
Procedure, shortened: as §1

MELK = MELK (Homo sapiens, UniProt Q14680)
Procedure, shortened: as §1

MST1R = MST1R (Homo sapiens, UniProt Q04912)
Procedure, shortened: as §1

NEK2 = NEK2 (Homo sapiens, UniProt P51955)
Procedure, shortened: as §1

NEK9 = NEK9 (Homo sapiens, UniProt Q8TD19)
Chain of NEK9 (Q8TD19 whole entry): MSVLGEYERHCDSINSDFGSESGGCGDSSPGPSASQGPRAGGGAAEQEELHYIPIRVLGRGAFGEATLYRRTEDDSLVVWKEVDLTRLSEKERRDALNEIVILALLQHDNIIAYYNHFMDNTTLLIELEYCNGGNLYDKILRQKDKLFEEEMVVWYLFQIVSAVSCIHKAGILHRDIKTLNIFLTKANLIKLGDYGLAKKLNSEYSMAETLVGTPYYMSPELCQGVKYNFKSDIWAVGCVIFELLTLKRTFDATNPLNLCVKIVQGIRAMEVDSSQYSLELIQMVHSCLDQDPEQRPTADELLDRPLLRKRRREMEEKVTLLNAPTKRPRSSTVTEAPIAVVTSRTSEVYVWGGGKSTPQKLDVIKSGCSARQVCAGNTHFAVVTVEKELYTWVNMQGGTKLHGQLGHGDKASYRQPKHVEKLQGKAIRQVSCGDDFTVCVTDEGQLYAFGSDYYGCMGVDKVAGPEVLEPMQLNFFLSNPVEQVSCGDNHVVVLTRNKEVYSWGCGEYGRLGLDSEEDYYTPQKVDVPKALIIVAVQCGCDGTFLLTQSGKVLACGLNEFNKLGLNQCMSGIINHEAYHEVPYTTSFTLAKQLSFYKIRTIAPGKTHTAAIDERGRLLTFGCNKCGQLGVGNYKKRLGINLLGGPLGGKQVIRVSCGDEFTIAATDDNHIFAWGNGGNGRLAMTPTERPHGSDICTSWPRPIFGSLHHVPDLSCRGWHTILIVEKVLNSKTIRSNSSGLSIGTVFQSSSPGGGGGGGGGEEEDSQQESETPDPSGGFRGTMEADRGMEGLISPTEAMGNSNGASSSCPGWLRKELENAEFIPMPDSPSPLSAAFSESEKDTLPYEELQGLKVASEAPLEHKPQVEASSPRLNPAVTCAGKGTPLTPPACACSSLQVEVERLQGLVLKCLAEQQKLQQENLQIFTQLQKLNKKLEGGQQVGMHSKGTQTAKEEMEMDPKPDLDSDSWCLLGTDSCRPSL
Procedure, shortened: as §1

PIK3CA(E545A) = PIK3CA(E545A) (Homo sapiens, UniProt P42336, E545A)
Procedure, shortened: as §1

PIP5K2C = target: T3, PIP5K2C (Homo sapiens, UniProt Q8TBX8)
T3 construct: gene PIP4K2C
T3 sequence (Q8TBX8 whole entry): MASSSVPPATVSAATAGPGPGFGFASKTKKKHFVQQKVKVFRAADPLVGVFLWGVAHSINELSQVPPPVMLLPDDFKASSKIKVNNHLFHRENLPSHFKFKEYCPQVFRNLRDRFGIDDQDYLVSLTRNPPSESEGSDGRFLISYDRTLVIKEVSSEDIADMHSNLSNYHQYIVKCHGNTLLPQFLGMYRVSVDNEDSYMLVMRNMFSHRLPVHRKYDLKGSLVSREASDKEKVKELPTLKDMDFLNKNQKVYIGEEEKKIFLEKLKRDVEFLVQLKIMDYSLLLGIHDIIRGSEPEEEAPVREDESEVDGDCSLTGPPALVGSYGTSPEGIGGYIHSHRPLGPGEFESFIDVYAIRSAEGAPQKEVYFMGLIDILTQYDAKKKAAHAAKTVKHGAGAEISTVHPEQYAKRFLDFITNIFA
Procedure, shortened: as §1

PRKCE = PRKCE (Homo sapiens, UniProt Q02156)
Procedure, shortened: as §1

RET(M918T) = RET(M918T) (Homo sapiens, UniProt P07949, M918T)
Procedure, shortened: as §1

RIOK3 = RIOK3 (Homo sapiens, UniProt O14730)
Procedure, shortened: as §1

[3] = target: T4, RPS6KA5(Kin.Dom.2-C-terminal) (Homo sapiens, UniProt O75582)
T4 construct: Kin.Dom.2-C-terminal
Procedure, shortened: as §1

SRPK2 = SRPK2 (Homo sapiens, UniProt P78362)
Procedure, shortened: as §1

STK35 = STK35 (Homo sapiens, UniProt Q8TDR2)
Procedure, shortened: as §1

TRKC = target: T5, TRKC (Homo sapiens, UniProt Q16288)
T5 construct: gene NTRK3
Procedure, shortened: as §1

[O-][S@@+](Cc1cncs1)C(c1ccccc1)c1ccccc1 [S-CE-123, (S)-5-((Benzhydrylsulfinyl)Methyl)Thiazole] showed a remaining binding at 2.8 µM [1] of 73%, a remaining binding at 2.8 µM (CDC2L5) of 98% and a remaining binding at 2.8 µM (CDK2) of 94%. For the same compound, the remaining binding at 2.8 µM (CDKL2) was 89%, the remaining binding at 2.8 µM (CSF1R-autoinhibited) was 100% and the remaining binding at 2.8 µM [2] was 96%. It also gave a remaining binding at 2.8 µM (EGFR(L747-T751del,Sins)) of 57%, a remaining binding at 2.8 µM (EGFR(T790M)) of 98% and a remaining binding at 2.8 µM (EPHA7) of 96%. The remaining binding at 2.8 µM (ERN1) was 86%, the remaining binding at 2.8 µM (FLT3(D835Y)) was 99% and the remaining binding at 2.8 µM (KIT) was 97%. The remaining binding at 2.8 µM (MELK) was 67%, the remaining binding at 2.8 µM (MST1R) was 93% and the remaining binding at 2.8 µM (NEK2) was 96%. It also gave a remaining binding at 2.8 µM (NEK9) of 100%, a remaining binding at 2.8 µM (PIK3CA(E545A)) of 93% and a remaining binding at 2.8 µM (PIP5K2C) of 100%. For the same compound, the remaining binding at 2.8 µM (PRKCE) was 100%, the remaining binding at 2.8 µM (RET(M918T)) was 89% and the remaining binding at 2.8 µM (RIOK3) was 97%. It also gave a remaining binding at 2.8 µM [3] of 85%, a remaining binding at 2.8 µM (SRPK2) of 76% and a remaining binding at 2.8 µM (STK35) of 98%. The remaining binding at 2.8 µM (TRKC) was 100%.
